# Measurements as given in US12497378B2, “Tetrahydronaphthalene compounds, pharmaceutical compositions, and uses thereof” (GUANGZHOU HENOVCOM BIOSCIENCE CO., LTD., priority 2020, dated 2025).
# Test: Pharmacokinetics experiment in mouse after intramuscular injection of compound suspensions
# Assay type: in vivo
# Conditions: 9 mg/kg (calculated according to Rotigotine), SD mice, plasma
# Procedure: The compounds of the present disclosure were precisely weighed in a proper amount and placed in a 20 ml vial, a blank matrix solution and a zirconia grinding ball were added to grind by vortex. After grinding, the suspension sample was transferred, and the blank matrix solution was used for diluting the suspension sample to final volume, and the suspension sample was packaged into 7 ml vials to prepare about a 20 mg/ml suspension. After the quantitative analysis was determined, the suspension was used for the pharmacokinetics experiment in the mouse.
# Suspensions of Embodiments 15, 24, 27, 32 and 54 were prepared according to the method of Embodiment 82 and were taken at a dose of 9 mg/kg(calculated according to Rotigotine), and each of the above-mentioned compound suspensions was intramuscularly administrated for three SD mice, and whole blood samples were taken in 1 h, 4 h, 8 h, 24 h, 48 h, 72 h, 96 h, 120 h, 168 h, 216, 264 h, 312 h, and 360 h after administration, with 0.3 ml/time point. K2EDT/heparin sodium were added to the whole blood samples for anticoagulation, and a BNPP stabilizer was further added, and then each whole blood sample was centrifuged to obtain plasma in 30 min.
substance,measurement,setting,value
"(S)-6-(propyl(2-(thiophen-2-yl)ethyl)amino)-5,6,7,8-tetrahydronaphthalen-1-yl 3-(16-(ethylamino)-16-oxohexadecanamido) propanoate [Embodiment 54]",blood concentrations of the active compounds,1 h after intramuscular injection of compound suspension,0.288 ng/mL
same,blood concentrations of the active compounds,4 h after intramuscular injection of compound suspension,1.26 ng/mL
same,blood concentrations of the active compounds,8 h after intramuscular injection of compound suspension,2.53 ng/mL
same,blood concentrations of the active compounds,24 h after intramuscular injection of compound suspension,2.31 ng/mL
same,blood concentrations of the active compounds,48 h after intramuscular injection of compound suspension,2.02 ng/mL
same,blood concentrations of the active compounds,72 h after intramuscular injection of compound suspension,1.51 ng/mL
same,blood concentrations of the active compounds,96 h after intramuscular injection of compound suspension,1.57 ng/mL
same,blood concentrations of the active compounds,120 h after intramuscular injection of compound suspension,1.86 ng/mL
same,blood concentrations of the active compounds,168 h after intramuscular injection of compound suspension,2.29 ng/mL
same,blood concentrations of the active compounds,216 h after intramuscular injection of compound suspension,2.76 ng/mL
same,blood concentrations of the active compounds,264 h after intramuscular injection of compound suspension,1.83 ng/mL
same,blood concentrations of the active compounds,312 h after intramuscular injection of compound suspension,1.33 ng/mL
same,blood concentrations of the active compounds,360 h after intramuscular injection of compound suspension,0.906 ng/mL
